Results published in ChEMBL document CHEMBL3885881, “DrugMatrix”.

Organism: Rattus norvegicus
Experiment: DrugMatrix - Regimen: Daily Repeat
Type: toxicity, organism-based, Sprague-Dawley
Design: regimen Daily Repeat, gender Male, age 6-8 weeks
Settings: in vivo, po, route oral GAVAGE, […]; for ABSOLUTE BASOPHIL / ABSOLUTE EOSINOPHIL / ABSOLUTE LYMPHOCYTE / ABSOLUTE MONOCYTE / ABSOLUTE SEGMENTED NEUTROPHIL / BASOPHIL / EOSINOPHIL / ERYTHROCYTE COUNT / HEMATOCRIT / HEMOGLOBIN / LEUKOCYTE COUNT / LYMPHOCYTE / MEAN CORPUSCULAR HEMOGLOBIN / MEAN CORPUSCULAR HEMOGLOBIN CONCENTRATION / MEAN CORPUSCULAR VOLUME / MONOCYTE / NEUTROPHIL / NUCLEATED RED BLOOD CELLS / PLATELET COUNT: tissue Blood; for ALANINE AMINOTRANSFERASE / ALBUMIN / ALKALINE PHOSPHATASE / ASPARTATE AMINOTRANSFERASE / BLOOD UREA NITROGEN / CARBON DIOXIDE / CHLORIDE / CHOLESTEROL / CREATINE PHOSPHOKINASE / CREATININE / GLUCOSE / LACTATE DEHYDROGENASE / LIPASE / POTASSIUM / SODIUM / TOTAL BILIRUBIN / TOTAL PROTEIN / URIC ACID: tissue Plasma
[1] = 300 mg/kg, 72 h, dose level M1, time 3 day
[2] = 300 mg/kg, 120 h, dose level M1, time 5 day
[3] = 1500 mg/kg, 72 h, dose level High, time 3 day
[4] = 1500 mg/kg, 120 h, dose level High, time 5 day

CCc1ccc(CCOc2ccc(CC3SC(=O)NC3=O)cc2)nc1 (stereo not drawn) [PIOGLITAZONE]
ABSOLUTE BASOPHIL [1]: 0 CELLS/uL | ABSOLUTE EOSINOPHIL [1]: 0 CELLS/uL | ABSOLUTE LYMPHOCYTE [1]: 15172.67 CELLS/uL | ABSOLUTE MONOCYTE [1]: 43 CELLS/uL | ABSOLUTE SEGMENTED NEUTROPHIL [1]: 1184.33 CELLS/uL | BASOPHIL [1]: 0% | EOSINOPHIL [1]: 0% | ERYTHROCYTE COUNT [1]: 4.93 x10E6/uL | HEMATOCRIT [1]: 32.73% | HEMOGLOBIN [1]: 13 G/DL | LEUKOCYTE COUNT [1]: 16.4 x10E3/uL | LYMPHOCYTE [1]: 92.33% | MEAN CORPUSCULAR HEMOGLOBIN [1]: 26.4 pg | MEAN CORPUSCULAR HEMOGLOBIN CONCENTRATION [1]: 39.73 G/DL | MEAN CORPUSCULAR VOLUME [1]: 66.4 fL | MONOCYTE [1]: 0.33% | NEUTROPHIL [1]: 7.33% | NUCLEATED RED BLOOD CELLS [1]: 0.67 /100WBC | PLATELET COUNT [1]: 1282 x10E3/uL | ALANINE AMINOTRANSFERASE [1]: 81.33 u/L | ALBUMIN [1]: 4.1 G/DL | ALKALINE PHOSPHATASE [1]: 504.67 u/L | ASPARTATE AMINOTRANSFERASE [1]: 92 u/L | BLOOD UREA NITROGEN [1]: 13.67 mg/dL | CARBON DIOXIDE [1]: 34 mmol/L | CHLORIDE [1]: 103.33 MEQ/L | CHOLESTEROL [1]: 58.33 mg/dL | CREATINE PHOSPHOKINASE [1]: 248.33 u/L | CREATININE [1]: 0.22 mg/dL | GLUCOSE [1]: 137 mg/dL | LACTATE DEHYDROGENASE [1]: 98 u/L | LIPASE [1]: 10.67 u/L | POTASSIUM [1]: 6.5 MEQ/L | SODIUM [1]: 143.9 MEQ/L | TOTAL BILIRUBIN [1]: 0.1 mg/dL | TOTAL PROTEIN [1]: 5.47 G/DL | URIC ACID [1]: 1.27 mg/dL | ABSOLUTE BASOPHIL [2]: 0 CELLS/uL | ABSOLUTE EOSINOPHIL [2]: 0 CELLS/uL | ABSOLUTE LYMPHOCYTE [2]: 12765 CELLS/uL | ABSOLUTE MONOCYTE [2]: 138.67 CELLS/uL | ABSOLUTE SEGMENTED NEUTROPHIL [2]: 829.67 CELLS/uL | BASOPHIL [2]: 0% | EOSINOPHIL [2]: 0% | ERYTHROCYTE COUNT [2]: 4.76 x10E6/uL | HEMATOCRIT [2]: 31.27% | HEMOGLOBIN [2]: 12.9 G/DL | LEUKOCYTE COUNT [2]: 13.73 x10E3/uL | LYMPHOCYTE [2]: 93% | MEAN CORPUSCULAR HEMOGLOBIN [2]: 27.17 pg | MEAN CORPUSCULAR HEMOGLOBIN CONCENTRATION [2]: 41.37 G/DL | MEAN CORPUSCULAR VOLUME [2]: 65.73 fL | MONOCYTE [2]: 1% | NEUTROPHIL [2]: 6% | NUCLEATED RED BLOOD CELLS [2]: 0.67 /100WBC | PLATELET COUNT [2]: 1095.33 x10E3/uL | ALANINE AMINOTRANSFERASE [2]: 71.67 u/L | ALBUMIN [2]: 4.07 G/DL | ALKALINE PHOSPHATASE [2]: 406.67 u/L | ASPARTATE AMINOTRANSFERASE [2]: 102.33 u/L | BLOOD UREA NITROGEN [2]: 14.33 mg/dL | CARBON DIOXIDE [2]: 33.33 mmol/L | CHLORIDE [2]: 101.33 MEQ/L | CHOLESTEROL [2]: 56.67 mg/dL | CREATINE PHOSPHOKINASE [2]: 223.67 u/L | CREATININE [2]: 0.16 mg/dL | GLUCOSE [2]: 150.33 mg/dL | LACTATE DEHYDROGENASE [2]: 224.33 u/L | LIPASE [2]: 10.33 u/L | POTASSIUM [2]: 5.99 MEQ/L | SODIUM [2]: 143.9 MEQ/L | TOTAL BILIRUBIN [2]: 0.1 mg/dL | TOTAL PROTEIN [2]: 5.73 G/DL | URIC ACID [2]: 1.43 mg/dL | ABSOLUTE BASOPHIL [3]: 0 CELLS/uL | ABSOLUTE EOSINOPHIL [3]: 0 CELLS/uL | ABSOLUTE LYMPHOCYTE [3]: 8411 CELLS/uL | ABSOLUTE MONOCYTE [3]: 92.33 CELLS/uL | ABSOLUTE SEGMENTED NEUTROPHIL [3]: 1396.67 CELLS/uL | BASOPHIL [3]: 0% | EOSINOPHIL [3]: 0% | ERYTHROCYTE COUNT [3]: 4.68 x10E6/uL | HEMATOCRIT [3]: 29.23% | HEMOGLOBIN [3]: 11.2 G/DL | LEUKOCYTE COUNT [3]: 9.9 x10E3/uL | LYMPHOCYTE [3]: 84.33% | MEAN CORPUSCULAR HEMOGLOBIN [3]: 23.93 pg | MEAN CORPUSCULAR HEMOGLOBIN CONCENTRATION [3]: 38.27 G/DL | MEAN CORPUSCULAR VOLUME [3]: 62.47 fL | MONOCYTE [3]: 1% | NEUTROPHIL [3]: 14.67% | NUCLEATED RED BLOOD CELLS [3]: 0.33 /100WBC | PLATELET COUNT [3]: 1023.33 x10E3/uL | ALANINE AMINOTRANSFERASE [3]: 85.67 u/L | ALBUMIN [3]: 3.97 G/DL | ALKALINE PHOSPHATASE [3]: 537.33 u/L | ASPARTATE AMINOTRANSFERASE [3]: 97.67 u/L | BLOOD UREA NITROGEN [3]: 12.33 mg/dL | CARBON DIOXIDE [3]: 34.67 mmol/L | CHLORIDE [3]: 101 MEQ/L | CHOLESTEROL [3]: 67 mg/dL | CREATINE PHOSPHOKINASE [3]: 311.67 u/L | CREATININE [3]: 0.36 mg/dL | GLUCOSE [3]: 131 mg/dL | LACTATE DEHYDROGENASE [3]: 114.33 u/L | LIPASE [3]: 9.67 u/L | POTASSIUM [3]: 5.48 MEQ/L | SODIUM [3]: 145 MEQ/L | TOTAL BILIRUBIN [3]: 0.1 mg/dL | TOTAL PROTEIN [3]: 5.57 G/DL | URIC ACID [3]: 0.67 mg/dL | ABSOLUTE BASOPHIL [4]: 0 CELLS/uL | ABSOLUTE EOSINOPHIL [4]: 36.67 CELLS/uL | ABSOLUTE LYMPHOCYTE [4]: 8937 CELLS/uL | ABSOLUTE MONOCYTE [4]: 131.33 CELLS/uL | ABSOLUTE SEGMENTED NEUTROPHIL [4]: 1128.33 CELLS/uL | BASOPHIL [4]: 0% | EOSINOPHIL [4]: 0.33% | ERYTHROCYTE COUNT [4]: 4.76 x10E6/uL | HEMATOCRIT [4]: 30.03% | HEMOGLOBIN [4]: 11.5 G/DL | LEUKOCYTE COUNT [4]: 10.23 x10E3/uL | LYMPHOCYTE [4]: 87.33% | MEAN CORPUSCULAR HEMOGLOBIN [4]: 24.2 pg | MEAN CORPUSCULAR HEMOGLOBIN CONCENTRATION [4]: 38.3 G/DL | MEAN CORPUSCULAR VOLUME [4]: 63.17 fL | MONOCYTE [4]: 1.33% | NEUTROPHIL [4]: 11% | NUCLEATED RED BLOOD CELLS [4]: 0 /100WBC | PLATELET COUNT [4]: 962 x10E3/uL | ALANINE AMINOTRANSFERASE [4]: 56.33 u/L | ALBUMIN [4]: 3.93 G/DL | ALKALINE PHOSPHATASE [4]: 338.67 u/L | ASPARTATE AMINOTRANSFERASE [4]: 80 u/L | BLOOD UREA NITROGEN [4]: 13.67 mg/dL | CARBON DIOXIDE [4]: 33.67 mmol/L | CHLORIDE [4]: 101 MEQ/L | CHOLESTEROL [4]: 62.67 mg/dL | CREATINE PHOSPHOKINASE [4]: 366 u/L | CREATININE [4]: 0.36 mg/dL | GLUCOSE [4]: 140.67 mg/dL | LACTATE DEHYDROGENASE [4]: 107.33 u/L | LIPASE [4]: 8.67 u/L | POTASSIUM [4]: 5.6 MEQ/L | SODIUM [4]: 144.53 MEQ/L | TOTAL BILIRUBIN [4]: 0.17 mg/dL | TOTAL PROTEIN [4]: 5.47 G/DL | URIC ACID [4]: 0.63 mg/dL
